One compound from ChEMBL document CHEMBL3217466, “Synthesis and biological activity of hydroxybenzylidenyl pyrrolidine-2,5-dione derivatives as new potent inhibitors of tyrosinase” (Medchemcomm, 2011) can be followed below.

In general, IC50 refers to the point on the concentration scale where inhibition reaches its midpoint. One may read the Ki as the dissociation constant of the complex between target and ligand, obtained from inhibition or displacement.

Series [1] deals with B16-F10. Nature of the series: Inhibition of melanogenesis in mouse B16F10 cells assessed as melanin content at 0.2 uM after 24 hrs in presence of alpha-MSH (reference value: 241.87%). On the set-up: scale not given: the % may be the effect or the level left. Type of series: functional.
The target of series [2] is T1, Tyrosinase (Mus musculus) (UniProt P11344).
T1 sequence (whole entry): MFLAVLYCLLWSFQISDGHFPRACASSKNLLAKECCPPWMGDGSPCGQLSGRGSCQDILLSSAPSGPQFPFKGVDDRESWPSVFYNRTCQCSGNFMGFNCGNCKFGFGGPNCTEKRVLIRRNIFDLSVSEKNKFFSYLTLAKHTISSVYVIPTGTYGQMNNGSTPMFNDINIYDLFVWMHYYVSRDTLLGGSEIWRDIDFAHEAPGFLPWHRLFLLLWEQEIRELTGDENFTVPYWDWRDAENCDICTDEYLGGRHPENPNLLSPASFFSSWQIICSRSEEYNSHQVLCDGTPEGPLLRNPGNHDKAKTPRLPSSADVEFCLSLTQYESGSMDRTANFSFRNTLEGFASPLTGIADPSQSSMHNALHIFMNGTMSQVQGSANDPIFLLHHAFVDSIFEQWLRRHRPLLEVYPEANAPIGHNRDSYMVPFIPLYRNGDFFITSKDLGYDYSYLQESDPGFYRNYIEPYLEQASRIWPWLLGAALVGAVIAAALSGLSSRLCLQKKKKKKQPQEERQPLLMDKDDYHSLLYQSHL
Description: Inhibition of tyrosinase in mouse B16F10 cells assessed as rate of L-DOPA oxidation at 5 uM after 24 hrs by ELISA in presence of alpha-MSH (reference value: […]%). Type of series: cell-based. On the set-up: scale not given: the % may be the effect or the level left. Particulars: B16-F10. On the technique in general: In an ELISA, binding on a coated surface is turned into a signal by an enzyme label.

Series [3] concerns B16-F10. Description: Inhibition of melanogenesis in mouse B16F10 cells assessed as melanin content at 5 uM after 24 hrs in presence of alpha-MSH (reference value: 241.87%). Type of series: functional. Also noted: scale not given: the % may be the effect or the level left.
Series [4] deals with T1, Tyrosinase (Mus musculus). Nature of the series: Inhibition of tyrosinase in mouse B16F10 cells assessed as rate of L-DOPA oxidation at 1 uM after 24 hrs by ELISA in presence of alpha-MSH (reference value: […]%). The series is classed as cell-based. Particulars: B16-F10. On the set-up: scale not given: the % may be the effect or the level left.
Series [5] can be described thus: Cytotoxicity against mouse B16F10 cells assessed as cell viability at 5 uM after 48 hrs by MTT assay. The series is classed as cell-based, B16-F10. To be noted: read-out: Activity. On the technique in general: Tetrazolium assays rely on reduction of a dye to a coloured formazan, in cell work by metabolically active cells.
In series [6] the test system is B16-F10. Description: Inhibition of melanogenesis in mouse B16F10 cells assessed as melanin content at 10 uM after 24 hrs in presence of alpha-MSH (reference value: 241.87%). Type of series: functional. Also noted: scale not given: the % may be the effect or the level left.
Series [7] in a line: Cytotoxicity against mouse B16F10 cells assessed as cell viability at 0.2 uM after 48 hrs by MTT assay. The series is classed as cell-based, B16-F10. To be noted: read-out: Activity.
For series [8], the target named is T2, Tyrosinase (Agaricus bisporus, UniProt O42713).
T2 sequence (O42713 whole entry): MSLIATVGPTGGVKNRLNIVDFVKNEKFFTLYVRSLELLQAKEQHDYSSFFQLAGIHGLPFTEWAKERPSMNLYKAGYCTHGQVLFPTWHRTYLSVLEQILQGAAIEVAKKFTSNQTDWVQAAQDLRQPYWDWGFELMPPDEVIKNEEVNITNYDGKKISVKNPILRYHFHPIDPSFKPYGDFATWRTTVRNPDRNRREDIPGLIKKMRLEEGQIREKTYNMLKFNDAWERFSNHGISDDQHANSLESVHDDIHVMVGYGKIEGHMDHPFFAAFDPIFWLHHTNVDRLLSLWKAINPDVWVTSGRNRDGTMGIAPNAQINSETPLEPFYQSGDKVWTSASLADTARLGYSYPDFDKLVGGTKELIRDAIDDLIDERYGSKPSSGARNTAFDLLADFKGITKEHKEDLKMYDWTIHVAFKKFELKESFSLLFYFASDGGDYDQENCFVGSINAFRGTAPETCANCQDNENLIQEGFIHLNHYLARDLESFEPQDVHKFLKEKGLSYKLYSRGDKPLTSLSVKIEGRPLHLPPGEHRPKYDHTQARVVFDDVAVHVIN
Description: Inhibition of mushroom tyrosinase assessed as decrease in dopachrome production using L-tyrosine as substrate by spectrophotometric analysis.

Series [9] addresses T1, Tyrosinase (Mus musculus). Description: Inhibition of tyrosinase in mouse B16F10 cells assessed as rate of L-DOPA oxidation at 2.5 uM after 24 hrs by ELISA in presence of alpha-MSH (reference value: […]%). Particulars: B16-F10. Type of series: cell-based. Also noted: scale not given: the % may be the effect or the level left.
In series [10] the test system is B16-F10. Nature of the series: Inhibition of melanogenesis in mouse B16F10 cells assessed as melanin content at 2.5 uM after 24 hrs in presence of alpha-MSH (reference value: 241.87%). The series is classed as functional. On the set-up: scale not given: the % may be the effect or the level left.
For series [11], the target named is T1, Tyrosinase (Mus musculus). Nature of the series: Inhibition of tyrosinase in mouse B16F10 cells assessed as rate of L-DOPA oxidation at 10 uM after 24 hrs by ELISA in presence of alpha-MSH (reference value: […]%). Type of series: cell-based. On the set-up: scale not given: the % may be the effect or the level left. Particulars: B16-F10.
The target of series [12] is T1, Tyrosinase (Mus musculus). Nature of the series: Inhibition of tyrosinase in mouse B16F10 cells assessed as rate of L-DOPA oxidation at 0.2 uM after 24 hrs by ELISA in presence of alpha-MSH (reference value: […]%). Type of series: cell-based. Also noted: scale not given: the % may be the effect or the level left. To be noted: B16-F10.
Series [13] addresses T2, Tyrosinase. Nature of the series: Competitive inhibition of mushroom tyrosinase assessed as decrease in rate of dopachrome formation using L-tyrosine as substrate at 1.25 uM by Lineweaver-Burk plot analysis.
Series [14] has as its target T2, Tyrosinase. Nature of the series: Competitive inhibition of mushroom tyrosinase assessed as decrease in rate of dopachrome formation using L-tyrosine as substrate at 20 uM by Lineweaver-Burk plot analysis.
Series [15] can be described thus: Cytotoxicity against mouse B16F10 cells assessed as cell viability at 10 uM after 48 hrs by MTT assay. Type of series: cell-based, B16-F10. To be noted: read-out: Activity.
Series [16] in a line: Cytotoxicity against mouse B16F10 cells assessed as cell viability at 1 uM after 48 hrs by MTT assay. The series is classed as cell-based, B16-F10. To be noted: read-out: Activity.
In series [17] the test system is B16-F10. Description: Inhibition of melanogenesis in mouse B16F10 cells assessed as melanin content at 1 uM after 24 hrs in presence of alpha-MSH (reference value: 241.87%). Type of series: functional. On the set-up: scale not given: the % may be the effect or the level left.
Series [18] in a line: Cytotoxicity against mouse B16F10 cells assessed as cell viability at 2.5 uM after 48 hrs by MTT assay. Type of series: cell-based, B16-F10. Particulars: read-out: Activity.
Series [19] deals with B16-F10. Description: Inhibition of melanogenesis in mouse B16F10 cells assessed as decrease in melanin content after 24 hrs in presence of alpha-MSH. Type of series: functional, cell-based.

For `COc1ccc(/C=C2\CC(=O)NC2=O)cc1O`, the Activity worked out at 236.67% in the series with B16-F10 [1]; 101% in series [2]; 103.74% in the series on B16-F10 [3]; 177% in series [4]; 99.49% with B16-F10 [6]; 103% in [9]. Also, the Activity amounted to 113.11% in the series with B16-F10 [10], 97.1% in series [11], 224% in [12] and 231.69% in the series with B16-F10 [17]. In addition, the viability at 48 h, 5 µM in [5] amounted to 98.1%. Moreover, the viability at 48 h, 0.2 µM in [7] turned out to be 99.5%. For the same compound, the IC50 at Tyrosinase [8] came to 2230 nM. The Ki on Tyrosinase [13] was 424 nM; at Tyrosinase [14] it was 1820 nM. In series [15], the viability at 48 h, 10 µM is 97.8%. For the same compound, the viability at 48 h, 1 µM in series [16] stood at 98.9%. Moreover, the viability at 48 h, 2.5 µM in series [18] is 98.4%. Also, the inhibition entry in the series with B16-F10 [19] is “Dose-dependent effect”.
